Calls of active or inactive are those of the source.
Columns and labels:
[1] = biological target: Large T antigen (Simian virus 40, UniProt P03070); type: functional, Betapolyomavirus macacae;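 further: Confirmatory-stage PubChem screen for compounds that inhibit SV40 T antigen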
[2] = biological target: FAD-linked sulfhydryl oxidase ALR (Homo sapiens, UniProt P55789); experiment: inhibitors of human ALR sulfhydryl oxidase, dose response, biochemical, H2O2 detection, luminescence, cherry-pick (AID 493248)
FAD-linked sulfhydryl oxidase ALR, sequence (P55789 whole entry): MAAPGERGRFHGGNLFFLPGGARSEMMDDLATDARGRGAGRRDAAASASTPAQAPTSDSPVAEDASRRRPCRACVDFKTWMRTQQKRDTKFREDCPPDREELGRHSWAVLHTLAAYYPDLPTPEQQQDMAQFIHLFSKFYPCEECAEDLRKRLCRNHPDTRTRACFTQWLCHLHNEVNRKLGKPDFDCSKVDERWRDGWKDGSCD

[3] = cells; type: functional
[4] = biological target: T1, Ubiquitin-conjugating enzyme E2 N (Homo sapiens, UniProt P61088); type: functional;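 further: Dose-response confirmation in a TR-FRET assay detecting UBC13-driven polyubiquitin chain formation, inhibition measured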
T1 sequence (P61088 whole entry): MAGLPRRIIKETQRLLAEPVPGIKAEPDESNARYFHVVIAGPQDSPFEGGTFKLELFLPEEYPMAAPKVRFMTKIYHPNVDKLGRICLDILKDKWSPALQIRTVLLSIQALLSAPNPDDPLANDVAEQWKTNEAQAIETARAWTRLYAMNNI

[5] = biological target: Genome polyprotein (dengue virus type 2, UniProt P29990); experiment: Dengue-2 NS5 methyltransferase inhibitors, primary screen, biochemical, confirmation dose response (AID 588689); type: functional
Genome polyprotein, sequence (P29990 2492-3391 limits assumed): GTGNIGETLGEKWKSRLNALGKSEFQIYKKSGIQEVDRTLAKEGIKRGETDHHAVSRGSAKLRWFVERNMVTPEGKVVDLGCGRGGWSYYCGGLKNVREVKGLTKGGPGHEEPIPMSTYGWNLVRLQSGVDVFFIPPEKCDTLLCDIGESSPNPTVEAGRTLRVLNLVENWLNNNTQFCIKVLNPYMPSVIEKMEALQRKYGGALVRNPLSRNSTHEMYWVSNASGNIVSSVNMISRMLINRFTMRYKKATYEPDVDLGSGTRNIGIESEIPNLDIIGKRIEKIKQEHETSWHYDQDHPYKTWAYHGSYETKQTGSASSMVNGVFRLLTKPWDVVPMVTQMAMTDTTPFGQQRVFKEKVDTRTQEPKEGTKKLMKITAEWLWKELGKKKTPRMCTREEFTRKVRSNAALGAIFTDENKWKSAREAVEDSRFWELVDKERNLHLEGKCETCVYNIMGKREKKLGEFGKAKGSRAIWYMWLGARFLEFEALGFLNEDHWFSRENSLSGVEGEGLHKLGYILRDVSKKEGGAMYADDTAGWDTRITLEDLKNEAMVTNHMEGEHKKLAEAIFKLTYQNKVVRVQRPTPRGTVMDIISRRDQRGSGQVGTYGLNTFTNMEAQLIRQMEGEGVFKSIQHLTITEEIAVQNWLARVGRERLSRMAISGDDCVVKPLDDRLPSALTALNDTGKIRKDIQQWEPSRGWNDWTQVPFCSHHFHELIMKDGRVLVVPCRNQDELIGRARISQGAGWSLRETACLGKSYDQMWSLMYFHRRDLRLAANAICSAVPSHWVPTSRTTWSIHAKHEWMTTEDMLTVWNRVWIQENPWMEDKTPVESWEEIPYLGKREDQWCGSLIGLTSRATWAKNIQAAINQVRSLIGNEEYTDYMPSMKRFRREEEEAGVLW

[6] = inhibitors of firefly luciferase expression or activity, dose response, H4 neuroglioma cells, luminescence (AID 1990); type: functional, cell-based
[7] = biological target: T2, RNA-binding protein pos-1 (Caenorhabditis elegans, UniProt G5EF15); experiment: inhibitors of POS-1/mex-3 RNA binding, dose response, biochemical, fluorescence polarization (AID 1964);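 further: purified POS-1 fused to maltose binding protein made in E. coli; potency of compounds blocking POS-1 binding to fluorescent RNA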
T2 sequence (G5EF15 whole entry): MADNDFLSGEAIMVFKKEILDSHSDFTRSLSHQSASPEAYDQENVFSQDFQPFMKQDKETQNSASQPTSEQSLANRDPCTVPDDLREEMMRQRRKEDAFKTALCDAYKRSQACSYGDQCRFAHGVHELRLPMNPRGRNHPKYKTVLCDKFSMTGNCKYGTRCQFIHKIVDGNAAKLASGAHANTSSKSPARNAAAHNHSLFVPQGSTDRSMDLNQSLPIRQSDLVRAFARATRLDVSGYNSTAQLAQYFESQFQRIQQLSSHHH

[8] = Luminescence Cell-Based Dose Response HTS to Identify Inhibitors of 5'UTR Stem-Loop Driven Prion Protein mRNA Translation in H4 Neuroglioblastoma Cells. [Related pubchem assays: 1827 (Project Summary), 1813 (Primary HTS)]; type: functional
[9] = biological target: T3, Zinc finger protein mex-5 (Caenorhabditis elegans, UniProt Q9XUB2); experiment: MEX-5/TCR-2 RNA interaction inhibitors, dose response, biochemical, C. elegans, fluorescence polarization (AID 1960)
T3 sequence (Q9XUB2 whole entry): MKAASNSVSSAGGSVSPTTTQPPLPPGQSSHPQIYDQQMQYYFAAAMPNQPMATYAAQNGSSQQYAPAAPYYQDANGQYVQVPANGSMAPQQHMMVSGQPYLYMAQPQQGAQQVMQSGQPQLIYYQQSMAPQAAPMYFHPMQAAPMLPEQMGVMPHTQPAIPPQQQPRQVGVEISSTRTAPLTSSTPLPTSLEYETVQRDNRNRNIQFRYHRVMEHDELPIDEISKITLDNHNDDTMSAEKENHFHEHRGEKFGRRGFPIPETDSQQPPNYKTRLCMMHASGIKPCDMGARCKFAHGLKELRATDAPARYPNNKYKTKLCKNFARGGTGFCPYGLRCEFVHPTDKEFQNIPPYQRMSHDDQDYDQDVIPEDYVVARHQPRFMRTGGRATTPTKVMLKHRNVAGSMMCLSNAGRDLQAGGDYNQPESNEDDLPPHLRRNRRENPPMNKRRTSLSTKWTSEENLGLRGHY

[10] = inhibitors of SNCA 5'UTR-driven reporter translation, confirmation, H4 neuroglioma cells, luminescence (AID 1988); type: functional, cell-based
[11] = biological target: T4, Replicative DNA helicase DnaB (Mycobacterium tuberculosis, UniProt P9WMR3); experiment: DnaB intein splicing inhibitors, dose response, biochemical, cell-free fluorescence (AID 449749); type: functional
T4 sequence (P9WMR3 whole entry): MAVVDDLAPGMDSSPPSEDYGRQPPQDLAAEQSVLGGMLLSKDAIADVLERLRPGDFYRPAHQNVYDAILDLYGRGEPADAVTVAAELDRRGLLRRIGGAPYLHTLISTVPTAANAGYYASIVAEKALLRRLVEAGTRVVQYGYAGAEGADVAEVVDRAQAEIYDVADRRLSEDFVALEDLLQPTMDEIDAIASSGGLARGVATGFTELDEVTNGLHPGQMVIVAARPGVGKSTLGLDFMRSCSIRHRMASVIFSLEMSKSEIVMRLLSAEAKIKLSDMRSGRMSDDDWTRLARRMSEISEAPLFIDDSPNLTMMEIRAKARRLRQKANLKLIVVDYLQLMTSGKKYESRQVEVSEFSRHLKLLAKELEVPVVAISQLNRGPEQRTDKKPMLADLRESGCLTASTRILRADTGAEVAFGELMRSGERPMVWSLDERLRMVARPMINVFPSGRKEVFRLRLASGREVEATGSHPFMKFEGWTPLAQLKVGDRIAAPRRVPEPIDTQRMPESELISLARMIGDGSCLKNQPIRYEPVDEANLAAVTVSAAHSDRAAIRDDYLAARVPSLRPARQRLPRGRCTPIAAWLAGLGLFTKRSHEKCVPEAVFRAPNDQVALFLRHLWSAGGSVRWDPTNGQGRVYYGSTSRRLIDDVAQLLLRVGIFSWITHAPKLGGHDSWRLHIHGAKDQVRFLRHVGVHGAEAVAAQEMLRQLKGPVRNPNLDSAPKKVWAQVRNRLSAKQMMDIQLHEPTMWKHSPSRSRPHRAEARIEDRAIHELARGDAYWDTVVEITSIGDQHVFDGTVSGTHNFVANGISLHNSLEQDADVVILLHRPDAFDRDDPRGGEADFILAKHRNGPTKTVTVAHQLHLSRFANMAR

[12] = biological target: T5, Protein RecA (Mycobacterium tuberculosis, UniProt P9WHJ3); experiment: Fluorescence Cell-Free Homogeneous Dose Retest to Identify Inhibitors of RecA-Intein Splicing Activity. [Related pubchem assays (depositor defined):AID2097, AID2223, AID489010, AID492950]; type: functional
T5 sequence (P9WHJ3 whole entry): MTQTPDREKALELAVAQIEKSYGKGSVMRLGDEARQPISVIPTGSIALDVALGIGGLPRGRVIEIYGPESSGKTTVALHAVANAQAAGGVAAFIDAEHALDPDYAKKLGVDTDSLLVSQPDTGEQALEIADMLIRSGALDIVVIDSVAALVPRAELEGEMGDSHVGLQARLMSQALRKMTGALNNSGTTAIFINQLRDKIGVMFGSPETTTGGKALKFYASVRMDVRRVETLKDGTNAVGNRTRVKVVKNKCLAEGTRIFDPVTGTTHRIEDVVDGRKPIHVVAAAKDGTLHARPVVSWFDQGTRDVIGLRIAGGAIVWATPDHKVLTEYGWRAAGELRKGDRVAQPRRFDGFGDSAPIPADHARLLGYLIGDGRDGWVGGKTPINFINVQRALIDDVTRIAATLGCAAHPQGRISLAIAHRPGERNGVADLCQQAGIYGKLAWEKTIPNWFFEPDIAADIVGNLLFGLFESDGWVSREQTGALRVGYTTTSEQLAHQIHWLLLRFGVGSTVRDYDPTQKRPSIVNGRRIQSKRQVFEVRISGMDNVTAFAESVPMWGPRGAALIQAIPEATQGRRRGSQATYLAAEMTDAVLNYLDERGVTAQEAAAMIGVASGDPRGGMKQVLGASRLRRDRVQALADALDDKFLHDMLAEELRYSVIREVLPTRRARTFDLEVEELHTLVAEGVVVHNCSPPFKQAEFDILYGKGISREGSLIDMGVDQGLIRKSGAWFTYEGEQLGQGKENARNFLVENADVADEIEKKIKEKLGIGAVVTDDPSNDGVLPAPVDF

[13] = tested on: INS1; experiment: beta cell apoptosis inhibitors, cytokine rescue, dose response, luminescence, retest (AID 449756); type: functional, cell-based; settings: Rattus norvegicus;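 further: cell death triggered by IL-1 beta plus TNF-alpha plus IFN-gamma mixture; protective hits raise ATP signal compared with cytokine alone wells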
[14] = biological target: T6, Polyadenylate-binding protein 1 (Homo sapiens, UniProt P11940); experiment: PABP1 MLLE–PAM2 interaction inhibitors, dose response, miRNA deadenylation inhibitor project, biochemical, fluorescence polarization, Cy5-PAM2 peptide, secondary (AID 602260); type: functional; settings: read-out: IC50_Mean
T6 sequence (P11940 whole entry): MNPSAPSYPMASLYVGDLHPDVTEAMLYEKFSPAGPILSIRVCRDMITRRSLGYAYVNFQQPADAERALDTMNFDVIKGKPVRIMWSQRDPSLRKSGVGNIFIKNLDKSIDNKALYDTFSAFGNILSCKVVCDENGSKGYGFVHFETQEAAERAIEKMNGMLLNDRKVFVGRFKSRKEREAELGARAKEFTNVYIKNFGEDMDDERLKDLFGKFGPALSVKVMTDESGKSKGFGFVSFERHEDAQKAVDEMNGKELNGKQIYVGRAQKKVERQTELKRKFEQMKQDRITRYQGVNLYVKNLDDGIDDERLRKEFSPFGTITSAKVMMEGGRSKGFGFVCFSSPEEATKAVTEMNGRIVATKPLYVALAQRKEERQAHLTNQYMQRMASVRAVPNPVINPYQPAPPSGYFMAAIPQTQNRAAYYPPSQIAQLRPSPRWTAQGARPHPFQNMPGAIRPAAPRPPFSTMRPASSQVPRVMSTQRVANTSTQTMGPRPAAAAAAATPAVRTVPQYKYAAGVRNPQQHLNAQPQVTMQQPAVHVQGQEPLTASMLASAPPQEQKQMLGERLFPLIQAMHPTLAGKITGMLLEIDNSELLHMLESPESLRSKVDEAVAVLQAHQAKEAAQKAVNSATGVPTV

[15] = biological target: T6, Polyadenylate-binding protein 1; experiment: PABP1 MLLE–PAM2 binding inhibitor potency, dose response, biochemical, fluorescence polarization, FITC-PAM2 peptide (AID 602259); type: functional; settings: read-out: IC50_Mean
[16] = inhibitors of intracellular T. cruzi replication, confirmation, NIH3T3 host cells, beta-gal luminescence (AID 2044); type: functional, cell-based;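 further: intracellular parasites grown in NIH/3T3 mouse fibroblasts as host cells; luminescent beta-galactosidase reporter signal from transgenic T. cruzi replicating inside host cells; inhibitors lower the luminescence signal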
[17] = cytotoxicity toward NIH3T3 fibroblasts, dose response, counter-screen, cell-based, ATP luminescence, mouse fibroblasts (AID 2010); type: functional;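 further: cells exposed to compound for about 90 hours before reading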
[18] = biological target: T7, Rac GTPase-activating protein 1 (Homo sapiens, UniProt Q9H0H5); experiment: MgcRacGAP GTPase-activating activity inhibitors, confirmation, biochemical, ADP Hunter fluorescence, primary and confirmatory (AID 624330); type: functional
T7 sequence (Q9H0H5 whole entry): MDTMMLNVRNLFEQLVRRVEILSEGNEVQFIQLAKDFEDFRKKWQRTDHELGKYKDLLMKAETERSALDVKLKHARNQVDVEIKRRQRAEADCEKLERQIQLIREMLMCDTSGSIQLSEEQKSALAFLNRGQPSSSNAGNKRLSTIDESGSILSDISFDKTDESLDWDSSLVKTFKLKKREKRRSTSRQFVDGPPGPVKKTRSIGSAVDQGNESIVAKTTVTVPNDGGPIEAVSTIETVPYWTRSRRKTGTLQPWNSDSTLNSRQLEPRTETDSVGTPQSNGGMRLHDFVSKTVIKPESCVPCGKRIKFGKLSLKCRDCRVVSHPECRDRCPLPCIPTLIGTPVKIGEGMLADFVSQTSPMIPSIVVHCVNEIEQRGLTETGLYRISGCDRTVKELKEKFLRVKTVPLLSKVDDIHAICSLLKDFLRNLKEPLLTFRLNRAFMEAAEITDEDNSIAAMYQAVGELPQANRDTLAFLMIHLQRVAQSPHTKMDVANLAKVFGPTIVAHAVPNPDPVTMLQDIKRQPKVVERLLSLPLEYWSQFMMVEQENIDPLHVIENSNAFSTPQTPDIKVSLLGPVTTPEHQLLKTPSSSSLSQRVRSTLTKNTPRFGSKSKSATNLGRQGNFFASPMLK

Large T antigen, sequence (P03070 whole entry): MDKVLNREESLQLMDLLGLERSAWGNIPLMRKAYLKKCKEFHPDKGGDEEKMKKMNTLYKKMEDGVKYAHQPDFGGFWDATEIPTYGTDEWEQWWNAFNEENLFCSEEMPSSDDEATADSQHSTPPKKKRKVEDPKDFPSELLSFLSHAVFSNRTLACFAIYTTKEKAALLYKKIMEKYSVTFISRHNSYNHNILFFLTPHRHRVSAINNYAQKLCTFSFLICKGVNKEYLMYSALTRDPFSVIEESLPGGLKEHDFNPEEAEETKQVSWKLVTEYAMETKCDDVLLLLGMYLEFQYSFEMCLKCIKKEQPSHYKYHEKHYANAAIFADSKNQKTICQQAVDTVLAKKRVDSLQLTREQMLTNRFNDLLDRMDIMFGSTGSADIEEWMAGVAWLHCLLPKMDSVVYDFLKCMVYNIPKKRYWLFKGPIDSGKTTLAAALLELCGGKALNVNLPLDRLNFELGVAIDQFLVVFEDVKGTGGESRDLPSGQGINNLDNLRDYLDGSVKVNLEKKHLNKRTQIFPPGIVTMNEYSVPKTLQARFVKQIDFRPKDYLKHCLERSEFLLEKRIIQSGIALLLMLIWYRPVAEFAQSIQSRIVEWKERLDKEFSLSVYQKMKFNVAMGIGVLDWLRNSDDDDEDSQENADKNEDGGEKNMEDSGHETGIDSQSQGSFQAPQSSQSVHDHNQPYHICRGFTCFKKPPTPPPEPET

Cc1cc2c(Nc3ccc(O)cc3)ncnc2s1
IC50 [1]: 5.5 µM (active)

CCN(CC)c1ccc(NC(=O)c2cccnc2)cc1
IC50 [1]: 13.5 µM (active)
AC50 [2]: 0.327 µM (active)

O=C(NCC(c1ccco1)N1CCc2ccccc21)c1ccccc1 (stereo not drawn)
AC50 [2]: 1.21 µM (active)

Cc1cc(C)cc(OC(=O)CCN2C(=O)c3ccccc3C2=O)c1
IC50 [3]: > 50 µM (active)

O=C(CCCn1c(=S)[nH]c2ccsc2c1=O)NCCc1ccccc1
IC50 [4]: > 20 µM (inactive)

Cc1ccc(C(C2C(=O)CC(C)(C)CC2=O)C2C(=O)CC(C)(C)CC2=O)s1
IC50 [5]: 46.4 µM (active)

CCN(CC)C(=O)CSc1nnc2nnc3cc(OC)ccc3n12
EC50 [6]: 14.9 µM (active)
EC50 [7]: 7.7 µM (active)
EC50 [8]: > 120 µM (not active)
EC50 [9]: 5.43 µM (active)
EC50 [10]: 10.8 µM (active)
AC50 [11]: > 380 µM (inactive)
EC50 [12]: 128 µM (active)

COc1cc(C(=O)Nc2ccc(O)cc2)ccc1OC(C)=O
IC50 [1]: 6.12 µM (active)

CCc1cc(SC#N)cc(C)c1NC(=O)CCl
IC50 [1]: > 100 µM (active)
AC50 [13]: 5.76 µM (active)
IC50 [14]: > 66 µM (inactive)
IC50 [15]: > 66 µM (inactive)

C=CCn1c(SCc2ccc(Cl)cc2)nc2cc(C(=O)N3CCC(C(N)=O)CC3)ccc2c1=O
IC50 [4]: > 20 µM (inactive)

Clc1ccc2nc(N3CCCCC3)[nH]c2c1
AC50 [2]: 4.04 µM (active)

O=C(NCC(c1cccnc1)N1CCN(c2ccc(F)cc2)CC1)c1ccco1 (stereo not drawn)
EC50 [16]: 0.46 µM (active)
EC50 [17]: > 60 µM (inconclusive)
AC50 [2]: 4.66 µM (active)

COc1ccc(C(=O)NN=C(C)/C=C(\O)c2ccccc2)cc1
IC50 [3]: > 50 µM (active)

CC1CN(S(=O)(=O)c2cccc(C(=O)N(Cc3nnc(-c4ccccc4Cl)o3)C3CC3)c2)CC(C)O1 (stereo not drawn)
IC50 [4]: > 20 µM (inactive)

O=C(NCc1ccccn1)c1ccc2c(c1)N(Cc1ccccc1)CCS2
AC50 [2]: 0.511 µM (active)

COc1cc(/C=C2\NC(=S)N(C)C2=O)ccc1O
IC50 [1]: 3.22 µM (active)

COc1ccc(/C=C2\C(=O)ON=C2c2ccccc2)cc1OC
IC50 [5]: 95.4 µM (active)

CC(=O)Nc1ccc(Nc2nc3ccccc3nc2NS(=O)(=O)c2ccccc2)cc1
AC50 [2]: 0.13 µM (active)

CC(=O)Nc1ccc(S(=O)(=O)Nc2ccc(Nc3ccccc3)cc2)cc1
AC50 [2]: 0.268 µM (active)
IC50 [18]: 70.1 µM (active)

O=C(Nc1ccccc1N1CCCC1)c1ccc(N2CCCC2=O)cc1
AC50 [2]: 1.55 µM (active)

Cc1nnc(N/N=C/c2ccc(Br)cc2)n1N
IC50 [3]: 2.75 µM (active)

COc1cc(/C=N/N(C)C)ccc1OC(=O)c1cccs1
IC50 [3]: 24.2 µM (active)

O=C(CN1CCOCC1)N/N=C/c1ccc(-c2ccc(Br)cc2)o1
IC50 [3]: > 50 µM (active)

Cc1ccc(S(=O)(=O)Nc2nc(C)cc(N/N=C/c3ccc(O)cc3)n2)cc1
IC50 [1]: 10.6 µM (active)

CCCc1nc2[nH]c(C)c(NS(=O)(=O)c3ccc(C4CCCCC4)cc3)c(=O)n2n1
IC50 [5]: 61.1 µM (active)
